The supplement of paper PMC10307832

How the values were obtained:
Experiment in all cases: relative viability (nuclei count vs DMSO), 5 days (fraction); higher = more cells survive
Elesclomol + OSI-027 = compound: CN(NC(=O)CC(=O)NN(C)C(=S)c1ccccc1)C(=S)c1ccccc1 [Elesclomol] + COc1cccc2cc(-c3nc([C@H]4CC[C@H](C(=O)O)CC4)n4ncnc(N)c34)[nH]c12 [OSI-027] (partner 0.5 µM)
How it was run: (§1)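 Nuclei were stained with Hoechst during a one-step fixation (final 0.05% Triton X-100, 1% formaldehyde, 1 ug/ml Hoechst) carried out 5 days after dosing, then counted on 4× images. The cells, lung cancer lines in 1536-well plates, had been dosed by pin tool the day after seeding with one drug alone or a fixed anchor-drug dose plus five library-drug doses (not always all listed) in √10 steps. Relative viability is the nuclei count in treated wells divided by that in vehicle wells, and each value is the median of duplicate plates.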

Elesclomol + Trametinib = compound: CN(NC(=O)CC(=O)NN(C)C(=S)c1ccccc1)C(=S)c1ccccc1 [Elesclomol] + CC(=O)Nc1cccc(-n2c(=O)n(C3CC3)c(=O)c3c(Nc4ccc(I)cc4F)n(C)c(=O)c(C)c32)c1 [Trametinib] (partner 0.02 µM)
How it was run: as §1

Elesclomol + Luminespib = compound: CN(NC(=O)CC(=O)NN(C)C(=S)c1ccccc1)C(=S)c1ccccc1 [Elesclomol] + CCNC(=O)c1noc(-c2cc(C(C)C)c(O)cc2O)c1-c1ccc(CN2CCOCC2)cc1 [Luminespib] (partner 0.01 µM)
How it was run: as §1

Elesclomol + Vorinostat = compound: CN(NC(=O)CC(=O)NN(C)C(=S)c1ccccc1)C(=S)c1ccccc1 [Elesclomol] + O=C(CCCCCCC(=O)Nc1ccccc1)NO [Vorinostat] (partner 1 µM)
How it was run: as §1

Elesclomol + AZD7762 = compound: CN(NC(=O)CC(=O)NN(C)C(=S)c1ccccc1)C(=S)c1ccccc1 [Elesclomol] + NC(=O)Nc1cc(-c2cccc(F)c2)sc1C(=O)N[C@H]1CCCNC1 [AZD7762] (partner 0.2 µM)
How it was run: as §1

Row | Cell Line | relative viability (Elesclomol + OSI-027; first compound 0.003162 µM) | relative viability (Elesclomol + OSI-027; first compound 0.01 µM) | relative viability (Elesclomol + OSI-027; first compound 0.03162 µM) | relative viability (Elesclomol + OSI-027; first compound 0.1 µM) | relative viability (Elesclomol + Trametinib; first compound 0.003162 µM) | relative viability (Elesclomol + Trametinib; first compound 0.01 µM) | relative viability (Elesclomol + Trametinib; first compound 0.03162 µM) | relative viability (Elesclomol + Trametinib; first compound 0.1 µM) | relative viability (Elesclomol + Luminespib; first compound 0.003162 µM) | relative viability (Elesclomol + Luminespib; first compound 0.01 µM) | relative viability (Elesclomol + Luminespib; first compound 0.03162 µM) | relative viability (Elesclomol + Luminespib; first compound 0.1 µM) | relative viability (Elesclomol + Vorinostat; first compound 0.003162 µM) | relative viability (Elesclomol + Vorinostat; first compound 0.01 µM) | relative viability (Elesclomol + Vorinostat; first compound 0.03162 µM) | relative viability (Elesclomol + Vorinostat; first compound 0.1 µM) | relative viability (Elesclomol + AZD7762; first compound 0.003162 µM) | relative viability (Elesclomol + AZD7762; first compound 0.01 µM) | relative viability (Elesclomol + AZD7762; first compound 0.03162 µM) | relative viability (Elesclomol + AZD7762; first compound 0.1 µM)
1 | 201T | 0.683 | 0.587 | 0.386 | 0.369 | 0.707 | 0.749 | 0.742 | 0.682 | 1.01 | 1.02 | 0.978 | 0.562 | 0.968 | 0.995 | 0.869 | 0.68 | 0.558 | 0.628 | 0.564 | 0.598
2 | A-427 | 0.45 | 0.2 | 0.3 | 0.149 | 0.761 | 0.411 | 0.236 | 0.183 | 0.701 | 0.498 | 0.27 | 0.117 | 0.823 | 0.755 | 0.192 | 0.15 | 0.756 | 0.527 | 0.188 | 0.151
3 | ABC-1 | 0.227 | 0.19 | 0.225 | 0.196 | – | – | – | – | 0.254 | 0.206 | 0.322 | 0.223 | 0.426 | 0.249 | 0.262 | 0.244 | 0.294 | 0.252 | 0.309 | 0.236
4 | BEN | 0.301 | 0.256 | 0.27 | 0.252 | 0.915 | 0.65 | 0.749 | 0.395 | 0.333 | 0.232 | 0.158 | 0.237 | 0.585 | 0.563 | 0.448 | 0.385 | 0.654 | 0.54 | 0.38 | 0.294
5 | CAL-12T | 0.504 | 0.277 | 0.139 | 0.0937 | 0.265 | 0.139 | 0.113 | 0.114 | 0.328 | 0.115 | 0.0856 | 0.0463 | 0.66 | 0.245 | 0.101 | 0.0721 | 0.622 | 0.483 | 0.3 | 0.17
6 | COR-L23 | 0.757 | 0.408 | 0.254 | 0.0774 | 0.55 | 0.22 | 0.239 | 0.101 | 0.598 | 0.316 | 0.206 | 0.0873 | 0.378 | 0.156 | 0.144 | 0.0678 | – | – | – | –
7 | COR-L 105 | 0.667 | 0.365 | 0.27 | 0.143 | 0.465 | 0.478 | 0.316 | 0.311 | 0.721 | 0.161 | 0.307 | 0.164 | 1 | 0.57 | 0.361 | 0.336 | – | – | – | –
8 | ChaGo-K-1 | 0.591 | 0.462 | 0.221 | 0.136 | 0.932 | 0.802 | 0.571 | 0.15 | 0.524 | 0.541 | 0.184 | 0.128 | 0.791 | 0.638 | 0.338 | 0.146 | 0.88 | 0.715 | 0.416 | 0.139
